Measured values reported in patent US20250304596A1, “PYRAZINE DERIVATIVES AND USES THEREOF” (FOGHORN THERAPEUTICS INC., priority 2022, published 2025).

Columns and labels:
[1] = molecular target: T1, HiBit-BRG1 fusion protein (Homo sapiens, UniProt P51532); assay: HiBiT-BRG1 cell-based degradation assay (Nano-Glo HiBiT Lytic Detection, 24 h); conditions: stable HeLa cell line expressing HiBit-BRG1 and LgBit; for Dmax: read-out: BRG1 HiBit Degradation Maximum (%); for DC50: read-out: BRMG1 HiBit Degradation IC50
T1 construct: expressed in transfected cells
Outline: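 Degradation read by lytic NanoBiT luminescence after 24 h compound exposure of a stable HiBit-BRG1/LgBit HeLa line. Ten-point, 3-fold series in duplicate, top final dose 30 μM; DMSO and 2 μM standard degrader define 0% and 100% degradation.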

HiBit-BRM fusion protein = molecular target: T2, HiBit-BRM fusion protein (Homo sapiens, UniProt P51531); assay: HiBiT-BRM cell-based degradation assay (Nano-Glo HiBiT Lytic Detection, 24 h); conditions: stable HeLa cell line expressing HiBiT-BRM; for DC50: read-out: BRM HiBit Degradation IC50
T2 construct: expressed in transfected cells
Outline: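 Luminescence from LgBiT complementation after lysis measured HiBiT-BRM levels in stably expressing HeLa cells. Compounds were dosed at up to 30 μM final, in 3-fold 10-point dilutions, for 24 h. Percent degradation was scaled between DMSO wells and wells treated with 2 μM standard BRM/BRG1 degrader.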

T1 sequence (P51532 whole entry, the tested form may be a part): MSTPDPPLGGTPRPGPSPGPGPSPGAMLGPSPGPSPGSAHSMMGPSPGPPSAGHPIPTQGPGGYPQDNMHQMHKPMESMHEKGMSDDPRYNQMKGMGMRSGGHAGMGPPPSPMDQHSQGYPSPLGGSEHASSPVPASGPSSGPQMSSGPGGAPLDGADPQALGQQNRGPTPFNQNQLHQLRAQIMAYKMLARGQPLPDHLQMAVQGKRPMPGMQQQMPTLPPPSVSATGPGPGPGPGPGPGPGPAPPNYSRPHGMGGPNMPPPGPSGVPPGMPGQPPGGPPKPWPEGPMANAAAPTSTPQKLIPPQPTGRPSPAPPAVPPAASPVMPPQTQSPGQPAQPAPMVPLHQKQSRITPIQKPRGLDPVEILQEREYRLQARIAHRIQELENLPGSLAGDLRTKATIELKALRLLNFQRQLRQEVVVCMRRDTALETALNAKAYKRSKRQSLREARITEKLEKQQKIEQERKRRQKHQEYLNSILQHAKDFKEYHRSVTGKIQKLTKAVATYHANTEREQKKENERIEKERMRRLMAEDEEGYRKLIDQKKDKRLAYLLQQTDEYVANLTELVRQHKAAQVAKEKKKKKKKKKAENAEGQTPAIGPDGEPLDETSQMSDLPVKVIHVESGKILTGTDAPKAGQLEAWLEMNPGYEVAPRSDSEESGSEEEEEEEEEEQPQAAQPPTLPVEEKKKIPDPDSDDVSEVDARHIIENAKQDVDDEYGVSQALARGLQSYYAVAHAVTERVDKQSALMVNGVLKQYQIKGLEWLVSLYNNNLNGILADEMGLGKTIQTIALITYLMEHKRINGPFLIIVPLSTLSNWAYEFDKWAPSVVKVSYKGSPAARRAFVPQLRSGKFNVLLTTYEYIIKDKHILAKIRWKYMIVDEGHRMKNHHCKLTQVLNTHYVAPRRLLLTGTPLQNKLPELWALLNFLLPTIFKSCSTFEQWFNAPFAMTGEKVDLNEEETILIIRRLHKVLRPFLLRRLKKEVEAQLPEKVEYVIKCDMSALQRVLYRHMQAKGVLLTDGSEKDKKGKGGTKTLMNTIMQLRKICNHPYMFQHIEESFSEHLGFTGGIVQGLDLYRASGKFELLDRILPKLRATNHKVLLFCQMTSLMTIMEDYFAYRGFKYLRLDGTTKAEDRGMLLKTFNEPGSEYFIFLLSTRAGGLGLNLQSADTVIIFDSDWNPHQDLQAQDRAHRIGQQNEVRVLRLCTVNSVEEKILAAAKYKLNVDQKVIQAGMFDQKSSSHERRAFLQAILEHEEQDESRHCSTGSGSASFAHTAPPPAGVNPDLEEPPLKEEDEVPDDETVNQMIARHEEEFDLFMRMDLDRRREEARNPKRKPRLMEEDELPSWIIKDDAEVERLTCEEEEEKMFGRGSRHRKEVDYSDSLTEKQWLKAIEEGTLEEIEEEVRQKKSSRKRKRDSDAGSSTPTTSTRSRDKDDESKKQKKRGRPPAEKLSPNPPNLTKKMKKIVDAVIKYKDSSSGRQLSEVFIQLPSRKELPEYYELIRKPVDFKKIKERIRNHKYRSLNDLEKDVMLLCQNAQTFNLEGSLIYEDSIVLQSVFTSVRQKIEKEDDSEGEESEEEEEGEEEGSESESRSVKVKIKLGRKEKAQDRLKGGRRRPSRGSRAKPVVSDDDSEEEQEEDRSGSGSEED
T2 sequence (P51531 whole entry, the tested form may be a part): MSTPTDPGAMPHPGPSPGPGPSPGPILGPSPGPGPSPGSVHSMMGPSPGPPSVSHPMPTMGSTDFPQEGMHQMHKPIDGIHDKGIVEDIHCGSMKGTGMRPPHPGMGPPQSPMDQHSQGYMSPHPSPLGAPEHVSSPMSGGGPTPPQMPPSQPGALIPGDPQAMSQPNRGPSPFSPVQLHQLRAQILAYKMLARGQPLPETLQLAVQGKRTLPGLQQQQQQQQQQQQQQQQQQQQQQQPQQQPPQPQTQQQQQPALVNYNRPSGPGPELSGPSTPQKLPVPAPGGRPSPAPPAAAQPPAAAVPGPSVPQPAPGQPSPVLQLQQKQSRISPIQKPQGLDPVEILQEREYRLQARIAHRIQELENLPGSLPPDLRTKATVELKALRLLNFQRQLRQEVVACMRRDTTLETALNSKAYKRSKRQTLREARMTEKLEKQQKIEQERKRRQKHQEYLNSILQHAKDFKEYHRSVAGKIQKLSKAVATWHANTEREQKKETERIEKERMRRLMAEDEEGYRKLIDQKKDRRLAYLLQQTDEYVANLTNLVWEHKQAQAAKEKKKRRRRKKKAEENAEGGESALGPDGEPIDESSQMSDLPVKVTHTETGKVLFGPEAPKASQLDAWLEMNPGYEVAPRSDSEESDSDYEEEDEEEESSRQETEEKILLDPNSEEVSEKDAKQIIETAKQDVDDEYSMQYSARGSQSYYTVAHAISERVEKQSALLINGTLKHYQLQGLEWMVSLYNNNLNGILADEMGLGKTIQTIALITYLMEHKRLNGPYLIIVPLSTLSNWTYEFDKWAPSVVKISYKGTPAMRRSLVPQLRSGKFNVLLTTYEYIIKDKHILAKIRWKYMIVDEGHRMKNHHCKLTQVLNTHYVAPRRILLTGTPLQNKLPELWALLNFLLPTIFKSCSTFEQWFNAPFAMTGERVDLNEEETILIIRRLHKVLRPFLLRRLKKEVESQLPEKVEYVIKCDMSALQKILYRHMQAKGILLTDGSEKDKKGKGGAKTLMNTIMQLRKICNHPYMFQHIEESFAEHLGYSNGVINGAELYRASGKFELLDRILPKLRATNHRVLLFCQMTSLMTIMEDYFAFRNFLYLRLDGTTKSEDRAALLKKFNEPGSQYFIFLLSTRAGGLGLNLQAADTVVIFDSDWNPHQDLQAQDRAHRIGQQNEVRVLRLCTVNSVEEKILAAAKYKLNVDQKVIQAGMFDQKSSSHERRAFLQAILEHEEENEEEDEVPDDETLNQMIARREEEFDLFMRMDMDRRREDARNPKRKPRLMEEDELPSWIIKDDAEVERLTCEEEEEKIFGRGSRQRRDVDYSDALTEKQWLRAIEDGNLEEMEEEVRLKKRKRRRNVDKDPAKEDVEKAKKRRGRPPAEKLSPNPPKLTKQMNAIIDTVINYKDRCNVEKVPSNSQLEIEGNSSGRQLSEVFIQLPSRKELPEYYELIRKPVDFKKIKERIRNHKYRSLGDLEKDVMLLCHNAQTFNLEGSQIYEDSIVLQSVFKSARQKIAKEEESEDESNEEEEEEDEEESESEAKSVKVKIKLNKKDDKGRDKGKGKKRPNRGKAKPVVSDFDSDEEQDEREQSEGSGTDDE

Compound	Dmax [1] [%]	BRM HiBit Degradation Maximum (%) (HiBit-BRM fusion protein)	DC50 (HiBit-BRM fusion protein) [nM]	DC50 [1] [nM]
Cc1ncsc1-c1ccc([C@H](C)NC(=O)[C@@H]2C[C@@H](O)CN2C(=O)[C@@H](c2cc(N3CC[C@H](c4cc5nnc(-c6ccccc6O)cc5s4)C3)no2)C(C)C)cc1 [Compound 73, (2S,4R)-4-hydroxy-1-((R)-2-(3-((S)-3-(3-(2-hydroxyphenyl)thieno[3,2-c]pyridazin-6-yl)pyrrolidin-1-yl)isoxazol-5-yl)-3-methylbutanoyl)-N-((S)-1-(4-(4-methylthiazol-5-yl)phenyl)ethyl)pyrrolidine-2-carboxamide]	< 50	A (“A” indicates maximum degradation ≥75%)	< 10	–
Cc1nc(N2CCC(c3sc4nnc(-c5ccccc5O)cc4c3C)CC2)ncc1-c1cc([C@H](C(=O)N2C[C@H](O)C[C@H]2C(=O)N[C@@H](C)c2ccc(-c3scnc3C)cc2)C(C)C)on1 [Compound 93, (2S,4R)-4-hydroxy-1-((R)-2-(3-(2-(4-(3-(2-hydroxyphenyl)-5-methylthieno[2,3-c]pyridazin-6-yl)piperidin-1-yl)-4-methylpyrimidin-5-yl)isoxazol-5-yl)-3-methylbutanoyl)-N-((S)-1-(4-(4-methylthiazol-5-yl)phenyl)ethyl)pyrrolidine-2-carboxamide]	> 50	A (“A” indicates maximum degradation ≥75%)	< 10	–
Cc1ncsc1-c1ccc([C@H](C)NC(=O)[C@@H]2C[C@@H](O)CN2C(=O)[C@@H](c2cc(N3CCC4(CC3)CC(c3sc5nnc(-c6ccccc6O)cc5c3C)C4)no2)C(C)C)cc1 [Compound 45, (2S,4R)-4-hydroxy-1-((R)-2-(3-(2-(3-(2-hydroxyphenyl)-5-methylthieno[2,3-c]pyridazin-6-yl)-7-azaspiro[3.5]nonan-7-yl)isoxazol-5-yl)-3-methylbutanoyl)-N-((S)-1-(4-(4-methylthiazol-5-yl)phenyl)ethyl)pyrrolidine-2-carboxamide]	< 50	A (“A” indicates maximum degradation ≥75%)	> 10	> 1000
Cc1ncsc1-c1ccc([C@H](C)NC(=O)[C@@H]2C[C@@H](O)CN2C(=O)[C@@H](c2cc(-c3cnc(N4CC[C@@H](c5sc6nnc(-c7ccccc7O)cc6c5C)C[C@H]4C)nc3)no2)C(C)C)cc1 [Compound 30, (2S,4R)-4-hydroxy-1-((R)-2-(3-(2-((2R,4R)-4-(3-(2-hydroxyphenyl)-5-methylthieno[2,3-c]pyridazin-6-yl)-2-methylpiperidin-1-yl)pyrimidin-5-yl)isoxazol-5-yl)-3-methylbutanoyl)-N-((S)-1-(4-(4-methylthiazol-5-yl)phenyl)ethyl)pyrrolidine-2-carboxamide]	< 50	A (“A” indicates maximum degradation ≥75%)	< 10	> 1000
Cc1ncsc1-c1ccc([C@H](C)NC(=O)[C@@H]2C[C@@H](O)CN2C(=O)[C@@H](c2cc(-c3cnc(N4CC[C@H](c5sc6nnc(-c7ccccc7O)cc6c5C)C4)nc3)no2)C(C)C)cc1 [Compound 41, (2S,4R)-4-hydroxy-1-((R)-2-(3-(2-((S)-3-(3-(2-hydroxyphenyl)-5-methylthieno[2,3-c]pyridazin-6-yl)pyrrolidin-1-yl)pyrimidin-5-yl)isoxazol-5-yl)-3-methylbutanoyl)-N-((S)-1-(4-(4-methylthiazol-5-yl)phenyl)ethyl)pyrrolidine-2-carboxamide]	< 50	A (“A” indicates maximum degradation ≥75%)	< 10	> 1000
Cc1ncsc1-c1ccc([C@H](C)NC(=O)[C@@H]2C[C@@H](O)CN2C(=O)[C@@H](c2cc(-c3cnc(N4CCC(c5sc6nnc(-c7ccccc7O)cc6c5C)CC4)nc3)no2)C(C)C)cc1 (single isomer, unassigned) [Compound 66]	< 50	A (“A” indicates maximum degradation ≥75%)	< 10	> 1000
Cc1ncsc1-c1ccc([C@H](C)NC(=O)[C@@H]2C[C@@H](O)CN2C(=O)[C@@H](c2cc(-c3ccnc(N4CC[C@H](c5cc6nnc(-c7ccccc7O)cc6s5)C4)n3)no2)C(C)C)cc1 [Compound 86, (2S,4R)-4-hydroxy-1-((R)-2-(3-(2-((S)-3-(3-(2-hydroxyphenyl)thieno[3,2-c]pyridazin-6-yl)pyrrolidin-1-yl)pyrimidin-4-yl)isoxazol-5-yl)-3-methylbutanoyl)-N-((S)-1-(4-(4-methylthiazol-5-yl)phenyl)ethyl)pyrrolidine-2-carboxamide]	< 50	A (“A” indicates maximum degradation ≥75%)	> 100	–
Cc1ncsc1-c1ccc([C@H](C)NC(=O)[C@@H]2C[C@@H](O)CN2C(=O)[C@@H](c2cc(-c3cnc(N4CCC(O)(c5sc6nnc(-c7ccccc7O)cc6c5C)CC4)nc3)no2)C(C)C)cc1 [Compound 52, (2S,4R)-4-hydroxy-1-((R)-2-(3-(2-(4-hydroxy-4-(3-(2-hydroxyphenyl)-5-methylthieno[2,3-c]pyridazin-6-yl)piperidin-1-yl)pyrimidin-5-yl)isoxazol-5-yl)-3-methylbutanoyl)-N-((S)-1-(4-(4-methylthiazol-5-yl)phenyl)ethyl)pyrrolidine-2-carboxamide]	< 50	B (“B” indicates maximum degradation ≥50%)	> 10	> 1000
Cc1ncsc1-c1ccc([C@H](C)NC(=O)[C@@H]2C[C@@H](O)CN2C(=O)[C@@H](c2cc(N3CCC(c4sc5nnc(-c6ccccc6O)cc5c4C)CC3)no2)C(C)C)cc1 [Compound 56, (2S,4R)-4-hydroxy-1-((R)-2-(3-(4-(3-(2-hydroxyphenyl)-5-methylthieno[2,3-c]pyridazin-6-yl)piperidin-1-yl)isoxazol-5-yl)-3-methylbutanoyl)-N-((S)-1-(4-(4-methylthiazol-5-yl)phenyl)ethyl)pyrrolidine-2-carboxamide]	< 50	B (“B” indicates maximum degradation ≥50%)	> 10	> 1000
Cc1ncsc1-c1ccc([C@H](C)NC(=O)[C@@H]2C[C@@H](O)CN2C(=O)[C@@H](c2cc(-c3cnc(N4CC(c5sc6nnc(-c7ccccc7O)cc6c5C)C4)nc3)no2)C(C)C)cc1 (single isomer, unassigned) [Compound 63]	< 50	A (“A” indicates maximum degradation ≥75%)	< 10	> 1000
Cc1ncsc1-c1ccc([C@H](C)NC(=O)[C@@H]2C[C@@H](O)CN2C(=O)[C@@H](c2cc(-c3cnc(N4CCN(c5cc6nnc(-c7ccccc7O)cc6s5)CC4)nc3)no2)C(C)C)cc1 [Compound 9, (2S,4R)-4-hydroxy-1-{2-[3-(2-{4-[3-(2-hydroxyphenyl)thieno[3,2-c]pyridazin-6-yl]piperazin-1-yl}pyrimidin-5-yl)-1,2-oxazol-5-yl]-3-methylbutanoyl}-N-[(1S)-1-[4-(4-methyl-1,3-thiazol-5-yl)phenyl]ethyl]pyrrolidine-2-carboxamide]	> 75	A (“A” indicates maximum degradation ≥75%)	< 10	> 10
Cc1ncsc1-c1ccc([C@H](C)NC(=O)[C@@H]2C[C@@H](O)CN2C(=O)[C@@H](c2cc(N3CC4(CCC(c5cc6cc(-c7ccccc7O)nnc6s5)CC4)C3)no2)C(C)C)cc1 [Compound 89, (2S,4R)-4-hydroxy-1-((R)-2-(3-(7-(3-(2-hydroxyphenyl)thieno[2,3-c]pyridazin-6-yl)-2-azaspiro[3.5]nonan-2-yl)isoxazol-5-yl)-3-methylbutanoyl)-N-((S)-1-(4-(4-methylthiazol-5-yl)phenyl)ethyl)pyrrolidine-2-carboxamide]	> 75	A (“A” indicates maximum degradation ≥75%)	< 10	> 10
Cc1ncsc1-c1ccc([C@H](C)NC(=O)[C@@H]2C[C@@H](O)CN2C(=O)[C@@H](c2cc(-c3ccnc(N4CC[C@@H](c5cc6nnc(-c7ccccc7O)cc6s5)C4)n3)no2)C(C)C)cc1 [Compound 83, (2S,4R)-4-hydroxy-1-((R)-2-(3-(2-((R)-3-(3-(2-hydroxyphenyl)thieno[3,2-c]pyridazin-6-yl)pyrrolidin-1-yl)pyrimidin-4-yl)isoxazol-5-yl)-3-methylbutanoyl)-N-((S)-1-(4-(4-methylthiazol-5-yl)phenyl)ethyl)pyrrolidine-2-carboxamide]	< 50	A (“A” indicates maximum degradation ≥75%)	> 10	–
Cc1ncsc1-c1ccc([C@H](C)NC(=O)[C@@H]2C[C@@H](O)CN2C(=O)[C@@H](c2cc(-c3cnc(N4C[C@H]5C[C@@H]4C[C@@H]5c4cc5cc(-c6ccccc6O)nnc5s4)nc3)no2)C(C)C)cc1 [Compound 22, (2S,4R)-4-hydroxy-1-((R)-2-(3-(2-((1R,4S,5S)-5-(3-(2-hydroxyphenyl)thieno[2,3-c]pyridazin-6-yl)-2-azabicyclo[2.2.1]heptan-2-yl)pyrimidin-5-yl)isoxazol-5-yl)-3-methylbutanoyl)-N-((S)-1-(4-(4-methylthiazol-5-yl)phenyl)ethyl)pyrrolidine-2-carboxamide]	< 50	A (“A” indicates maximum degradation ≥75%)	< 10	> 1000
